Measured values as given in patent publication US10947596B2, “Compositions and methods for identification, assessment, prevention, and treatment of cancer using NFS1 biomarkers and modulators” (Dana-Farber Cancer Institute, Inc., priority 2014, dated 2021).
Entries after “also recorded” stand apart in the source; their conditions may differ.

What was measured:
[1] = test system: ferroptosis; settings: cited from earlier work
[2] = test system: PTGS2; settings: cited from earlier work
[3] = test system: HIF2alpha; assay: Western blot for HIF2alpha in C2BBE1 cells; format: cell-based; settings: parental C2BBE1 cells, treatment for 24 hours, relative to untreated
[4] = test system: MKN74 cells; assay: Clonogenic growth assay in MKN74 cells; format: cell-based; settings: MKN74 stable shRNA lines infected with constitutive cDNA lentivirus (GFP, WT NFS1 or NFS1^C381A), thirteen days post-doxycycline
Method: Clonogenic assays were performed for longer-term assessment of proliferative phenotypes. Three days following doxycycline (dox)-induction (of stable, inducible shRNA lines using 0.5 ug/mL dox) or infection (for constitutive shRNA expression), cells were trypsinized, counted (Countess Automated Cell Counter. Life Technologies), and re-plated in duplicate or triplicate in 6-well dishes at 750 to 3000 cells per well, depending on cell line. Clonogenic growth was monitored by RFP (pRSIT12 vector) or GFP (pRSI6 vector) expression at 1 week intervals using a laser scanning cytometer to measure colony area and numbers of colonies per well (IsoCyte, ImageXpress Velos). Two to three weeks after plating cells, cells were stained using crystal violet as an additional visualization of colony formation. […]
Knockdown of NFS1 inhibits clonogenic cell growth. […] Three days post-dox-induction, cells were trypsinized, counted, and plated at low density (750 cells per well of a 6-well dish) for assaying clonogenic growth. Additional cells were also collected and assessed by q-RT-PCR for NFS1 knockdown. Clonogenic growth (relative colony area shown in FIG. 5, as well as the number of objects) was monitored by red fluorescent protein (RFP) expression over two weeks scanning the plates on a laser scanning cytometer (IsoCyte, ImageXpress Velos). […]

[5] = test system: aconitase; assay: Aconitase activity colorimetric assay in MKN74 lysates; format: cell-based; settings: MKN74, constitutive shRNA or cDNA lentivirus, seven days post-infection
Method: Aconitase activity was assessed three to eleven days post-infection or dox induction in one million cells using the Aconitase Activity calorimetric Assay Kit (Biovision K716-100). Succinate dehydrogenase activity was assessed using the Succinate Dehydrogenase Activity Colorimetric Assay Kit (Biovision K660-100).
(§1) In order to confirm that such pharmacodynamic markers associated with NFS1 can be used as adjuncts or surrogate markers for directly assessing NFS1 modulation, several experiments were performed. […] The stable lines were replated at 3 days post-dox, cultured for 3 days further, and assessed for NFS1 mRNA knockdown (top right panel) or PTGS2 (Cox2) mRNA levels (bottom right panel) by q-RT-PCR. […]
Similarly, after 7 days of NFS1 knockdown, decreases in aconitase activity and ferritin protein levels, along with upregulation of TFRC protein we observed (FIG. 15). […] These cells were then either lysed in RIPA buffer, quantified, and equally loaded on a SDS-PAGE gel for analysis by Western by staining for TfRC, NFS1, FTL, or GAPDH (loading control); or trypsinized, counted, lysed, and analyzed for aconitase activity. […] These cells were then either lysed in RIPA buffer, quantified, and equally loaded on a SDS-PAGE gel for analysis by Western and staining for NFS1 and GAPDH; or trypsinized, counted, lysed and analyzed for succinate dehydrogenase activity and aconitase activity. […]

[6] = test system: ferritin; assay: Western blot for ferritin (FTH1/FTL) in MKN74; format: cell-based; settings: MKN74, constitutive shRNA or cDNA lentivirus, seven days post-infection
Method: Cells were lysed in NP-40 lysis buffer (Boston BioProducts) supplemented with 1× Halt Protease/Phosphatase Inhibitor Cocktail (Pierce Biotechnology, Inc.), 1 mM Dithiothreitol, and 1 mM Phenylmethanesulfonylfluoride. Lysates were cleared by centrifugation and quantified using a BCA Protein Assay Kit (Pierce Biotechnology, Inc.). Lysates were resolved by SDS-PAGE (using Mini-Protean TGX gradient gels, Bio-Rad Laboratories), transferred to nitrocellulose (using the iBlot Gel, Transfer Device and Dry Blotting System, Life Technologies) and blocked in 5% nonfat milk (Blotting-Grade Blocker, Bio-Rad). […] Peroxidase-conjugated secondary antibodies (Donkey anti-rabbit IgG or Donkey anti-mouse IgG, Jackson ImmunoResearch Laboratories, Inc.) were used at 1:5000 in 5% blocking solution, and protein bands were detected using Pico SuperSignal West Pico Chemiluminescent substrate (Thermo Scientific, Pierce Biotechnology, Inc.).
as §1

In the case of COC(=O)c1ccc([C@H]2c3[nH]c4ccccc4c3C[C@H](C(=O)OC)N2C(=O)CCl)cc1 [1S3R-RSL3, (1S,3R)-RSL3], the ferroptosis [1] is listed as “induce ferroptosis” and the PTGS2 expression [2] is listed as “upregulation”.
For [Cl][Co][Cl] [cobalt chloride], the HIF2alpha levels [3] was “modulation of HIF2alpha levels”.
For “NFS1^C381A: mutant NFS1 that is catalytically dead due to a C381A mutation, dominant negative, expressed from lentiviral cDNA”, the clonogenic growth [4] was “growth inhibitory effects comparable to that of NFS1-sh5; also recorded: strongly inhibited cell growth”, the aconitase activity [5] was “decrease” and the “ferritin (FTH1) levels” value [6] was “decrease”.
